The results in this text go back to patent US10618903B2, “Heteroaryl substituted aminopyridine compounds” (BRISTOL-MYERS SQUIBB COMPANY, priority 2015, dated 2020).

This test deals with IRAK4 (Homo sapiens (Human), UniProt Q9NWZ3). The test can be described thus: IRAK4 Inhibition Assay. The class given is biochemical. The conditions noted are these: ATP 500 μM; IRAK4 0.6 nM. The procedure: The assays were performed in U-bottom 384-well plates. The final assay volume was 30 μL prepared from 15 μL additions of enzyme and substrates (fluoresceinated peptide and ATP) and test compounds in assay buffer (20 mM HEPES pH 7.2, 10 mM MgCl2, 0.015% Brij 35 and 4 mM DTT). The reaction was initiated by the combination of IRAK4 with substrates and test compounds. The reaction mixture was incubated at room temperature for 60 min. and terminated by adding 45 μL of 35 mM EDTA to each sample. The reaction mixture was analyzed on the Caliper LABCHIP® 3000 (Caliper, Hopkinton, Mass.) by electrophoretic separation of the fluorescent substrate and phosphorylated product. Inhibition data were calculated by comparison to no enzyme control reactions for 100% inhibition and vehicle-only reactions for 0% inhibition. The final concentrations of reagents in the assays are ATP, 500 μM; FL-IPTSPITTTYFFFKKK peptide 1.5 μM; IRAK4, 0.6 nM; and DMSO, 1.6%.
IRAK4, sequence (Q9NWZ3 whole entry): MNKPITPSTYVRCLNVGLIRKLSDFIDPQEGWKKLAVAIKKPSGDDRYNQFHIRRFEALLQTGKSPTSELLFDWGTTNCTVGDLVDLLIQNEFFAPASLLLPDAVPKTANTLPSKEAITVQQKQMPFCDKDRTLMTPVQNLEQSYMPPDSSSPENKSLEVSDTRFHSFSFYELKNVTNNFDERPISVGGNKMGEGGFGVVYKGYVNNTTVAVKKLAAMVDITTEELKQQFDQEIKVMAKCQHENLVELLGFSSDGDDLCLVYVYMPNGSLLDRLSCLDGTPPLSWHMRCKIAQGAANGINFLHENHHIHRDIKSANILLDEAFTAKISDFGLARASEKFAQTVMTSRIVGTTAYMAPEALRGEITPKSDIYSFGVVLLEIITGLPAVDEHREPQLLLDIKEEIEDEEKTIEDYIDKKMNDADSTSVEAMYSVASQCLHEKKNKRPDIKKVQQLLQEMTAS
Regarding `CC(C)Nc1cc(-c2cnn3cc(Cl)cnc23)ncc1C(=O)N[C@@H]1CC[C@@H](CO)OC1` [Example 77, 6-(6-chloropyrazolo[1,5-a]pyrimidin-3-yl)-N-((3R,6S)-6-(hydroxymethyl)tetrahydro-2H-pyran-3-yl)-4-(isopropylamino)nicotinamide], the IC50 – broadly, the concentration that inhibits the measured activity by half – turned out to be 99 nM.
Consider `CC(C)Nc1cc(-c2cnn3cc(Cl)cnc23)ncc1C(=O)N[C@H]1CC[C@H](NC(=O)C(C)(C)O)CC1` [Example 78, 6-(6-chloropyrazolo[1,5-a]pyrimidin-3-yl)-N-((1r,4r)-4-(2-hydroxy-2-methylpropanamido)cyclohexyl)-4-(isopropylamino)nicotinamide], for which the 50% inhibitory concentration (IC50) amounted to 29 nM.
The value for `COC1CCC(O)(CCNC(=O)c2cnc(-c3cnn4cc(Cl)cnc34)cc2NC2COC2)CC1` (stereo not shown) [Example 79, 6-(6-chloropyrazolo[1,5-a]pyrimidin-3-yl)-N-(2-(1-hydroxy-4-methoxycyclohexyl)ethyl)-4-(oxetan-3-ylamino)nicotinamide] was 14 nM.
Regarding `CC[C@H](O)CNc1cc(-c2cnn3cc(Cl)cnc23)ncc1C(=O)NC[C@@H](F)C(C)(C)O` [Example 81, 6-(6-chloropyrazolo[1,5-a]pyrimidin-3-yl)-N—((R)-2-fluoro-3-hydroxy-3-methylbutyl)-4-(((S)-2-hydroxybutyl)amino)nicotinamide], the IC50 is 26 nM.
The figure for `CC(C)(O)[C@H](F)CNC(=O)c1cnc(-c2cnn3cc(Cl)cnc23)cc1NC1CCC(F)C1` (stereo partly drawn) [Example 85, 6-(6-chloropyrazolo[1,5-a]pyrimidin-3-yl)-N—((R)-2-fluoro-3-hydroxy-3-methylbutyl)-4-((3-fluorocyclopentyl)amino)nicotinamide] is 2 nM.
On to `CC(C)(O)[C@H](F)CNC(=O)c1cnc(-c2cnn3cc(Cl)cnc23)cc1NC1CCC(F)C1` (stereo partly drawn) [Example 86, 6-(6-chloropyrazolo[1,5-a]pyrimidin-3-yl)-N—((R)-2-fluoro-3-hydroxy-3-methylbutyl)-4-((3-fluorocyclopentyl)amino)nicotinamide], for which the 50% inhibitory concentration (IC50) was found to be 4 nM.
The figure for `CNC(=O)[C@H]1CC[C@H](NC(=O)c2cnc(-c3cnn4cc(C#N)cnc34)cc2NC(C)C)CC1` [Example 88, 6-(6-cyanopyrazolo[1,5-a]pyrimidin-3-yl)-4-(isopropylamino)-N-((1r,4r)-4-(methylcarbamoyl)cyclohexyl)nicotinamide] is 34 nM.
As for `C[C@H](Nc1cc(-c2cnn3cc(C#N)cnc23)ncc1C(=O)NC[C@@H](F)C(C)(C)O)C(C)(C)O` [Example 100, 6-(6-cyanopyrazolo[1,5-a]pyrimidin-3-yl)-N—((R)-2-fluoro-3-hydroxy-3-methylbutyl)-4-(((S)-3-hydroxy-3-methylbutan-2-yl)amino)nicotinamide], the IC50 was determined as 94 nM.
For `CNC(=O)[C@H]1CC[C@H](NC(=O)c2cnc(-c3cnn4cc(C#N)cnc34)cc2NCC(C)(C)F)CC1` [Example 102, 6-(6-cyanopyrazolo[1,5-a]pyrimidin-3-yl)-4-((2-fluoro-2-methylpropyl)amino)-N-((1r,4r)-4-(methylcarbamoyl)cyclohexyl)nicotinamide], the half-inhibitory concentration (IC50) turned out to be 80 nM.
The value for `CC(C)(O)[C@H](F)CNC(=O)c1cnc(-c2cnn3cc(C#N)cnc23)cc1NC1CCCC1O` (stereo partly drawn) [Example 103, 6-(6-cyanopyrazolo[1,5-a]pyrimidin-3-yl)-N—((R)-2-fluoro-3-hydroxy-3-methylbutyl)-4-((2-hydroxycyclopentyl)amino)nicotinamide] was 44 nM; that for `CC(C)(O)[C@H](F)CNC(=O)c1cnc(C2=C3N=CC(C#N)C=C3N=N2)cc1N[C@@H]1CCCN(C(=O)CC(F)(F)F)C1` (stereo partly drawn) [Example 108, 6-(6-cyano-6H-pyrazolo[4,3-b]pyridin-3-yl)-N—((R)-2-fluoro-3-hydroxy-3-methylbutyl)-4-(((R)-1-(3,3,3-trifluoropropanoyl)piperidin-3-yl)amino)nicotinamide] was 67 nM.
In the case of `CC(Nc1cc(-c2cnn3cc(C#N)cnc23)ncc1C(=O)NC[C@@H](F)C(C)(C)O)c1cccnc1` (stereo partly drawn) [Example 113, 6-(6-cyanopyrazolo[1,5-a]pyrimidin-3-yl)-N—((R)-2-fluoro-3-hydroxy-3-methylbutyl)-4-((1-(pyridin-3-yl)ethyl)amino)nicotinamide], the IC50 stood at 53 nM.
With `CC(C)(O)[C@H](F)CNC(=O)c1cnc(-c2cnn3cc(C#N)cnc23)cc1N[C@@H]1CCN(c2cncnc2)C1` [Example 119, 6-(6-cyanopyrazolo[1,5-a]pyrimidin-3-yl)-N—((R)-2-fluoro-3-hydroxy-3-methylbutyl)-4-(((R)-1-(pyrimidin-5-yl)pyrrolidin-3-yl)amino)nicotinamide], the IC50 came to 9 nM.
On to `CC(C)(O)[C@H](F)CNC(=O)c1cnc(-c2cnn3cc(C#N)cnc23)cc1NCC1(O)COC1` [Example 121, (R)-6-(6-cyanopyrazolo[1,5-a]pyrimidin-3-yl)-N-(2-fluoro-3-hydroxy-3-methylbutyl)-4-(((3-hydroxyoxetan-3-yl)methyl)amino)nicotinamide], for which the half-maximal inhibitory concentration (IC50) was determined as 52 nM.
Turning to `CO[C@H]1CC[C@H](NC(=O)c2cnc(-c3cnn4cc(C#N)cnc34)cc2NC2COC2)CC1` [Example 124, 6-(6-cyanopyrazolo[1,5-a]pyrimidin-3-yl)-N-((1r,4r)-4-methoxycyclohexyl)-4-(oxetan-3-ylamino)nicotinamide], the concentration for half-maximal inhibition (IC50) was 12 nM.
With `CC[C@H](O)CNc1cc(-c2cnn3cc(C#N)cnc23)ncc1C(=O)NC[C@@H](F)C(C)(C)O` [Example 125, 6-(6-cyanopyrazolo[1,5-a]pyrimidin-3-yl)-N—((R)-2-fluoro-3-hydroxy-3-methylbutyl)-4-(((S)-2-hydroxybutyl)amino)nicotinamide], the concentration for half-maximal inhibition (IC50) amounted to 56 nM.
Consider `CC(C)(O)[C@H](F)CNC(=O)c1cnc(-c2cnn3cccnc23)cc1NC1CCOCC1` [Example 126, (R)—N-(2-fluoro-3-hydroxy-3-methylbutyl)-6-(pyrazolo[1,5-a]pyrimidin-3-yl)-4-((tetrahydro-2H-pyran-4-yl)amino)nicotinamide], for which the IC50 was 22 nM.
For the compound `CC(C)Nc1cc(-c2cnn3cccnc23)ncc1C(=O)NC[C@@H](F)C(C)(C)O` [Example 127, (R)—N-(2-fluoro-3-hydroxy-3-methylbutyl)-4-(isopropylamino)-6-(pyrazolo[1,5-a]pyrimidin-3-yl)nicotinamide], the IC50 was 81 nM.
In the case of `CC(C)Nc1cc(-c2cnn3cc(C4CC4)cnc23)ncc1C(=O)NC[C@@H](F)C(C)(C)O` [Example 128, (R)-6-(6-cyclopropylpyrazolo[1,5-a]pyrimidin-3-yl)-N-(2-fluoro-3-hydroxy-3-methylbutyl)-4-(isopropylamino)nicotinamide], the IC50 came out at 75 nM.
The figure for `CC(C)Nc1cc(-c2cnn3cc(F)c(N)nc23)ncc1C(=O)NC[C@@H](F)C(C)(C)O` [Example 129, (R)-6-(5-amino-6-fluoropyrazolo[1,5-a]pyrimidin-3-yl)-N-(2-fluoro-3-hydroxy-3-methylbutyl)-4-(isopropylamino)nicotinamide] is 3 nM; for `CC(C)(O)[C@H](F)CNC(=O)c1cnc(-c2cnc3cccnn23)cc1NC1COC1` [Example 131, (R)—N-(2-fluoro-3-hydroxy-3-methylbutyl)-6-(imidazo[1,2-b]pyridazin-3-yl)-4-(oxetan-3-ylamino)nicotinamide] it is 13 nM; for `CC(C)(O)[C@H](F)CNC(=O)c1cnc(-c2cnc3cccnn23)cc1NC1CCOCC1` [Example 132, (R)—N-(2-fluoro-3-hydroxy-3-methylbutyl)-6-(imidazo[1,2-b]pyridazin-3-yl)-4-((tetrahydro-2H-pyran-4-yl)amino)nicotinamide] it is 9 nM.
As for `CC(C)(O)[C@H]1CC[C@H](NC(=O)c2cnc(-c3cnc4cccnn34)cc2NC2COC2)CC1` [Example 133, N-((1r,4r)-4-(2-hydroxypropan-2-yl)cyclohexyl)-6-(imidazo[1,2-b]pyridazin-3-yl)-4-(oxetan-3-ylamino)nicotinamide], the half-maximal inhibitory concentration (IC50) worked out at 36 nM.
The value for `C[C@@H](CO)Nc1cc(-c2cnc3cccnn23)ncc1C(=O)NC[C@@H](F)C(C)(C)O` [Example 136, N—((R)-2-fluoro-3-hydroxy-3-methylbutyl)-4-(((S)-1-hydroxypropan-2-yl)amino)-6-(imidazo[1,2-b]pyridazin-3-yl)nicotinamide] was 19 nM.
The value for `C[C@@H](CO)Nc1cc(-c2cnc3cccnn23)ncc1C(=O)NCCC(C)(C)O` [Example 137, (S)—N-(3-hydroxy-3-methylbutyl)-4-((1-hydroxypropan-2-yl)amino)-6-(imidazo[1,2-b]pyridazin-3-yl)nicotinamide] was 75 nM; that for `CC(C)(O)CNc1cc(-c2cnc3cccnn23)ncc1C(=O)NC[C@@H](F)C(C)(C)O` [Example 138, (R)—N-(2-fluoro-3-hydroxy-3-methylbutyl)-4-((2-hydroxy-2-methylpropyl)amino)-6-(imidazo[1,2-b]pyridazin-3-yl)nicotinamide] was 62 nM.
On to `CC(C)Nc1cc(-c2cnc3ccc(NCCO)nn23)ncc1C(=O)NC[C@@H](F)C(C)(C)O` [Example 139, (R)—N-(2-fluoro-3-hydroxy-3-methylbutyl)-6-(6-((2-hydroxyethyl)amino)imidazo[1,2-b]pyridazin-3-yl)-4-(isopropylamino)nicotinamide], for which the 50% inhibitory concentration (IC50) is 3 nM.
For `CC(C)(O)[C@H](F)CNC(=O)c1cnc(-c2cnc3ccc(NCCO)nn23)cc1NC1COC1` [Example 140, (R)—N-(2-fluoro-3-hydroxy-3-methylbutyl)-6-(6-((2-hydroxyethyl)amino)imidazo[1,2-b]pyridazin-3-yl)-4-(oxetan-3-ylamino)nicotinamide], the IC50 amounted to 6 nM.
